{"source": "paper PMC5073322", "about": "“Novel Natural Product-like Caged Xanthones Bearing a Carbamate Moiety Exhibit Antitumor Potency and Anti-Angiogenesis Activity In vivo” (Scientific Reports, 2016)", "key": {"HUVECs [1]": {"tested_on": "HUVECs", "assay": "Tube formation assay", "type": "cell-based, human", "settings": "Matrigel", "experimental": "(§1) GA was reported to inhibit tumour angiogenesis and may be a viable drug candidate for anti-angiogenesis and anticancer therapies. Therefore, the anti-angiogenesis activity of the caged xanthone derivative 8n was evaluated. Human umbilical vein endothelial cells (HUVECs) were used in all experiments. Cell migration is critical for endothelial cells to form blood vessels during angiogenesis, tumour growth and metastasis. […] Endothelial cell invasion is a critical part of angiogenesis; therefore, a transwell assay was performed to evaluate the ability of inactivated HUVECs to pass through the transwell membrane barrier in the presence of 8n.\nFigure 8 8n had anti-angiogenesis activity in vitro and in vivo. (A) A wound-healing assay was used to evaluate the motility of HUVECs after treatment with 8n for 24 h. (B) Changes in cell motility were evaluated using a transwell assay of cell migration and invasion. (C) The effect of 8n on tube formation by HUVECs. […] (D) Zebrafish embryos treated with blank control or 1, 10, or 50 μg/ml of 8n.\nThe tube formation assay was performed as previously reported with some modifications. A 48-well cell culture plate and the tips used were pre-chilled at −20 °C for 10 mins and then carefully coated with Matrigel (200 μL/well; Becton Dickinson, Bedford, MA, USA). Caution was taken to avoid bubbles. […]"}, "VEGF": {"tested_on": "VEGF", "assay": "VEGF mRNA by real-time RT-PCR", "type": "cell-based", "settings": "hypoxia, VEGF/GAPDH", "experimental": "Figure 9 (A) The caged compounds (50 μM) inhibited the Hsp90 ATPase activity in a HTRF-based inhibition assay. (B) The IC50 values for the inhibition of Hsp90 ATPase by 8n, 8o and GA as detected by the HTRF Transcreener ADP kit. The test compounds were diluted to obtain a range of concentrations and incubated with Hsp90 and ATP. The amount of ADP generated was detected. (C) Western blots of the Hsp90 client proteins after HepG2 cells were treated with the indicated concentrations of 8n for 24 h. (D) The mRNA expression of VEGF was determined by real-time quantitative reverse-transcriptase polymerase chain reaction (RT-PCR) and analysed by the delta Ct method. The bars represent the means with standard error of the mean (SEM) and the fold change in the VEGF/GAPDH ratio relative to the vehicle-treated group. The different significance levels are indicated as **P < 0.05.\nThe influence of 8n on the degradation of Hsp90 client proteins was monitored by WB analysis. HepG2 cells were treated with different concentrations of 8n for 24 h. […] HIF-1α, as a key modulator of angiogenesis and an important client protein of Hsp90, was also examined, and the expression of HIF-1α decreased after treatment with 8n."}, "A549/cisplatin": {"tested_on": "A549/cisplatin", "assay": "MTT antiproliferative assay, cisplatin-resistant A549", "type": "cell-based", "settings": "read-out: IC50 A549/cisplatin, MTT, 72 h", "description": "(§3) The inhibition of tumour cell growth was measured by a modified tetrazolium (MTT) salt assay, as previously described[39]. Cells were cultured in a 96-well plate and treated with culture medium alone or different concentrations of the compounds. The cells were incubated for 72 h, and then, the MTT assay reagent was added. After a 4 h incubation, the formazan product was quantitated at 570 nm. The IC50 values (the concentrations that gave rise to 50% inhibition of cell viability) were calculated using GraphPad Prism 6 using a variable slope (four parameters)."}, "HepG2 tumours": {"tested_on": "HepG2 tumours", "assay": "HepG2 hepatoblastoma xenograft in nude mice", "type": "in vivo", "settings": "20 days; for inhibition of the tumour volume: IV, twice-daily", "experimental": "Given the in vitro anti-tumour cell activity of 8n, we continued to evaluate its in vivo effect in hepatoblastoma xenograft models using previously reported methods, and the water-soluble anti-cancer drug 5-fluorouracil (5-FU) was used as a positive control. After tumours were established, the mice were IV injected with 2.5, 5, 10 or 50 mg/kg 8n; the lead compound DDO-6101 and antitumour drug 5-FU were used as controls. All mice had normal weights and quality of life in in vivo tests. […] The in vivo activity of 8n was also evaluated after oral administration. […] This observation may be attributed to the improved physicochemical properties of 8n compared to those of DDO-6101, such as aqueous solubility and cell membrane permeability, which were provided by modification with the carbamate moiety.\nFigure 7 (A) The tumour diameters were measured and used to calculate the tumour volumes. The HepG2 xenograft-bearing mice were intravenously injected with 2.5, 5, 10 and 50 mg/kg 8n for 20 days. (B) After 20 days, mice were sacrificed and the individual tumours were weighed. *p < 0.05, […]; Student’s t-test (n = 6). (C) The tumour diameters were measured and used to calculate the tumour volumes. The HepG2 xenograft-bearing mice were orally administered 50 mg/kg 8n, 50 mg/kg DDO-6101 or 10 mg/kg 5-FU for 20 days.\nAll studies were performed in compliance with the relevant guidelines and regulations. Tumours on female nude mice were established by injecting 1×10^7 HepG2 cells on the dorsal surface. After four weeks, tumours of approximately 150 mm^3 were cut into pieces that were 3 mm×3 mm×3 mm in size and were then implanted in the dorsal surface of other female nude mice. One week later, mice implanted with xenografts of 100 mm^3 were selected, randomized, and […] injected with 2.5, 5, or 10-mg/kg 8n or vehicle daily for another three weeks. The tumour dimensions were measured daily with vernier calipers, and the tumour volumes were calculated using the formula: volume = (width)^2 × length/2."}, "A549/taxol": {"tested_on": "A549/taxol", "assay": "MTT antiproliferative assay, Taxol-resistant A549", "type": "cell-based", "settings": "read-out: IC50 A549/taxol; MTT, 72 h; Taxol-resistant A549", "description": "as §3"}, "HUVECs [2]": {"tested_on": "HUVECs", "assay": "Wound healing assay (hypoxia-induced migration)", "type": "cell-based, human", "settings": "0.01, 0.05 and 0.25 μM, 24 h", "experimental": "as §1\n(§2) Figure 8 8n had anti-angiogenesis activity in vitro and in vivo. (A) A wound-healing assay was used to evaluate the motility of HUVECs after treatment with 8n for 24 h. (B) Changes in cell motility were evaluated using a transwell assay of cell migration and invasion. (C) The effect of 8n on tube formation by HUVECs. HUVECs were incubated with 8n for 6 h and then transferred to Matrigel for 6 h. (D) Zebrafish embryos treated with blank control or 1, 10, or 50 μg/ml of 8n.\nHUVECs were incubated in a 6-well plate until full confluence. […] Then, the wound edges were photographed under an inverted-phase microscope and measured."}, "HUVECs [3]": {"tested_on": "HUVECs", "assay": "Transwell invasion assay", "type": "cell-based, human", "settings": "0.25 μM", "experimental": "as §1, §2\nA transwell migration assay was performed as previously described with minor modifications. HUVECs (4×10^4 cells per well) with compound 8n were seeded in the top of transwells (Corning Incorporated) and allowed to migrate for 4 h at 37 °C, 5% CO2 and 1% O2. […]"}}, "data": [{"smiles": "CC(C)=CCC12OC(C)(C)C3CC(C=C4C(=O)c5c(OC(=O)N6CCC(N7CCCCC7)CC6)cccc5OC431)C2=O", "note": "(stereo not shown) [Compound 8n]", "values": [{"measurement": "tube-forming ability of HUVECs", "setting": "HUVECs [1]", "result": "significantly impaired"}, {"measurement": "hypoxic induction of VEGF expression (mRNA)", "setting": "VEGF", "result": "substantially repressed"}, {"measurement": "IC50", "setting": "A549/cisplatin", "result": "1100 ± 170", "unit": "nM"}, {"measurement": "inhibition of the tumour volume", "setting": "HepG2 tumours; 2.5 mg/kg", "result": 27.97, "unit": "%"}, {"measurement": "inhibition of the tumour volume", "setting": "HepG2 tumours; 5 mg/kg", "result": 38.50, "unit": "%"}, {"measurement": "inhibition of the tumour volume", "setting": "HepG2 tumours; 10 mg/kg", "result": 48.36, "unit": "%"}, {"measurement": "inhibition of tumour growth", "setting": "HepG2 tumours; 50 mg/kg, oral, daily", "result": 30.12, "unit": "%"}, {"measurement": "IC50", "setting": "A549/taxol", "result": "1900 ± 120", "unit": "nM"}, {"measurement": "hypoxia-induced migration of HUVECs", "setting": "HUVECs [2]", "result": "suppressed hypoxia-induced migration in a concentration-dependent manner"}, {"measurement": "invasion of inactivated HUVECs", "setting": "HUVECs [3]", "result": "almost completely inhibited"}]}]}
